The values that follow come from ChEMBL document CHEMBL1123144, “Studies on 4(1H)-quinazolinones. 5. Synthesis and antiinflammatory activity of 4(1H)-quinazolinone derivatives” (J Med Chem, 1985).

Data set [1] has as its system Mus musculus. Kind of data set: Ulcer index by number of mice bearing ulcer at dose 30 mg/kg out of 5 mice tested. Type of data set: functional.
Data set [2] relates to Rattus norvegicus. The data set is described as follows: Anti-inflammatory activity following oral administration. Type of data set: functional.
The subject of data set [3] is Rattus norvegicus. Kind of data set: Percent inhibition against carrageenan-induced rat paw edema at 50 mg/kg dose administered perorally; 41-50%. Type of data set: functional. To be noted: route oral.
In data set [4] the test system is Rattus norvegicus. Kind of data set: Analgesic activity by oral administration route. Type of data set: functional.
Data set [5] relates to Mus musculus. The data set is described as follows: Toxicity by number of mice dead at dose 500 mg/kg out of 5 mice tested by oral administration route; Value represented as 0/5. Type of data set: organism-based. The following applies: in vivo. Further details: dose 500 mg/kg, route oral.
Data set [6] deals with Mus musculus. Kind of data set: Number of mice bearing ulcer at dose 30 mg/kg out of 5 mices tested. Type of data set: functional.

With `Cc1ccc2c(-c3ccccc3)nc(=O)n(C(C)C)c2c1` [PROQUAZONE], the “Ulcer Index” value with Mus musculus [1] came to 0.12. Besides, the ED30 in the data set with Rattus norvegicus [2] worked out at 10 mg/kg; with Rattus norvegicus [4] it was 20 mg/kg. Also, the inhibition in vivo at 50 mg/kg with Rattus norvegicus [3] came to 50%. This molecule also had a Toxicity in the data set on Mus musculus [5] of 0. The molecule further gave a No. of mice in the data set with Mus musculus [6] of 4.
